Assay: [14C]-QBS10072S distribution by quantitative whole-body autoradiography in mice with intracranial LN229 tumors
Assay type: in vivo, mouse
Conditions: 5 mg/kg IV
Method: Athymic mice with intracranial implanted LN229 cells received a single IV dose of 5 mg/kg and 200 μCi/kg [14C]-QBS10072S into the tail vein using the formulation described above. Animals (one per time point) were sacrificed one, eight, and 24 hours post-dose, and frozen in a hexane/solid carbon dioxide bath for at least 10 minutes. The carcasses were processed as described for quantitative whole-body autoradiography. Briefly, sagittal sections (~ 40 μm thick) were cut using a microtome, mounted, and exposed to a [14C]-sensitive phosphor imaging plate for four days. The images were scanned and quantitated by image densitometry using MCID image analysis software. The concentrations of radioactivity were expressed as the μg equivalents of test article per gram sample (μg equiv/g). The upper and lower limits of quantification were 550 and 0.008 μg equiv/g, respectively (QPS, Newark, DE).

In the case of `Cc1ccc(N(CCCl)C[14CH2]Cl)cc1C[C@H](N)CC(=O)O.Cl.Cl` [[14C]-QBS10072S, [chloroethyl-2-14C]-QBS10072S×2HCl], the “Tissue Concentration” value (Adipose (brown), 1 h) is reported as 2.528 µg equiv/g tissue, the “Tissue Concentration” value (Adipose (brown), 8 h) is reported as 0.440 µg equiv/g tissue and the “Tissue Concentration” value (Adipose (brown), 24 h) is reported as 0.577 µg equiv/g tissue. The “Tissue Concentration” value (Adipose (white), 1 h) was 0.409 µg equiv/g tissue, the “Tissue Concentration” value (Adipose (white), 8 h) was 0.348 µg equiv/g tissue and the “Tissue Concentration” value (Adipose (white), 24 h) was 0.381 µg equiv/g tissue. For the same compound, the “Tissue Concentration” value (Adrenal Gland, 1 h) was 2.700 µg equiv/g tissue, the “Tissue Concentration” value (Adrenal Gland, 8 h) was 0.638 µg equiv/g tissue and the “Tissue Concentration” value (Adrenal Gland, 24 h) was 0.533 µg equiv/g tissue. The “Tissue Concentration” value (Blood (cardiac), 1 h) was 2.204 µg equiv/g tissue, the “Tissue Concentration” value (Blood (cardiac), 8 h) was 0.581 µg equiv/g tissue and the “Tissue Concentration” value (Blood (cardiac), 24 h) was 0.734 µg equiv/g tissue. The “Tissue Concentration” value (Bone, 1 h) was 0.350 µg equiv/g tissue, the “Tissue Concentration” value (Bone, 8 h) was 0.165 µg equiv/g tissue and the “Tissue Concentration” value (Bone, 24 h) was 0.065 µg equiv/g tissue. The “Tissue Concentration” value (Brain (cerebellum), 1 h) was 0.395 µg equiv/g tissue, the “Tissue Concentration” value (Brain (cerebellum), 8 h) was 0.105 µg equiv/g tissue and the “Tissue Concentration” value (Brain (cerebellum), 24 h) was 0.120 µg equiv/g tissue. For the same compound, the “Tissue Concentration” value (Brain (cerebrum), 1 h) was 0.469 µg equiv/g tissue, the “Tissue Concentration” value (Brain (cerebrum), 8 h) was 0.109 µg equiv/g tissue and the “Tissue Concentration” value (Brain (cerebrum), 24 h) was 0.101 µg equiv/g tissue. For the same compound, the “Tissue Concentration” value (Brain (medulla), 1 h) was 0.403 µg equiv/g tissue, the “Tissue Concentration” value (Brain (medulla), 8 h) was 0.081 µg equiv/g tissue and the “Tissue Concentration” value (Brain (medulla), 24 h) was 0.118 µg equiv/g tissue. For the same compound, the “Tissue Concentration” value (Cecum (contents), 1 h) was 3.895 µg equiv/g tissue, the “Tissue Concentration” value (Cecum (contents), 8 h) was 24.266 µg equiv/g tissue and the “Tissue Concentration” value (Cecum (contents), 24 h) was 9.502 µg equiv/g tissue. For the same compound, the “Tissue Concentration” value (Cecum, 1 h) was 2.419 µg equiv/g tissue, the “Tissue Concentration” value (Cecum, 8 h) was 0.924 µg equiv/g tissue and the “Tissue Concentration” value (Cecum, 24 h) was 0.655 µg equiv/g tissue. The “Tissue Concentration” value (Choroid Plexus, 1 h) was 0.815 µg equiv/g tissue, the “Tissue Concentration” value (Choroid Plexus, 8 h) was 0.159 µg equiv/g tissue and the “Tissue Concentration” value (Choroid Plexus, 24 h) was 0.186 µg equiv/g tissue. The “Tissue Concentration” value (Esophagus, 1 h) was 1.211 µg equiv/g tissue, the “Tissue Concentration” value (Esophagus, 8 h) was 0.442 µg equiv/g tissue and the “Tissue Concentration” value (Esophagus, 24 h) was 0.565 µg equiv/g tissue. The “Tissue Concentration” value (Harderian Gland, 1 h) was 3.371 µg equiv/g tissue, the “Tissue Concentration” value (Harderian Gland, 8 h) was 0.468 µg equiv/g tissue and the “Tissue Concentration” value (Harderian Gland, 24 h) was 0.329 µg equiv/g tissue. For the same compound, the “Tissue Concentration” value (Heart, 1 h) was 2.165 µg equiv/g tissue, the “Tissue Concentration” value (Heart, 8 h) was 0.489 µg equiv/g tissue and the “Tissue Concentration” value (Heart, 24 h) was 0.480 µg equiv/g tissue. For the same compound, the “Tissue Concentration” value (Kidney (outer medulla), 1 h) was 6.281 µg equiv/g tissue, the “Tissue Concentration” value (Kidney (outer medulla), 8 h) was 1.372 µg equiv/g tissue and the “Tissue Concentration” value (Kidney (outer medulla), 24 h) was 1.164 µg equiv/g tissue. The “Tissue Concentration” value (Large Intestine, 1 h) was 1.437 µg equiv/g tissue, the “Tissue Concentration” value (Liver, 1 h) was 5.522 µg equiv/g tissue and the “Tissue Concentration” value (Liver, 8 h) was 0.674 µg equiv/g tissue. For the same compound, the “Tissue Concentration” value (Liver, 24 h) was 0.598 µg equiv/g tissue, the “Tissue Concentration” value (Lung, 1 h) was 2.943 µg equiv/g tissue and the “Tissue Concentration” value (Lung, 8 h) was 0.684 µg equiv/g tissue. For the same compound, the “Tissue Concentration” value (Lung, 24 h) was 0.620 µg equiv/g tissue, the “Tissue Concentration” value (Mammary Gland Region, 1 h) was 0.485 µg equiv/g tissue and the “Tissue Concentration” value (Mammary Gland Region, 8 h) was 0.173 µg equiv/g tissue. For the same compound, the “Tissue Concentration” value (Mammary Gland Region, 24 h) was 0.365 µg equiv/g tissue, the “Tissue Concentration” value (Ovary, 1 h) was 2.564 µg equiv/g tissue and the “Tissue Concentration” value (Ovary, 8 h) was 0.563 µg equiv/g tissue. For the same compound, the “Tissue Concentration” value (Ovary, 24 h) was 0.585 µg equiv/g tissue, the “Tissue Concentration” value (Pancreas, 1 h) was 3.270 µg equiv/g tissue and the “Tissue Concentration” value (Pancreas, 8 h) was 0.546 µg equiv/g tissue. The “Tissue Concentration” value (Pancreas, 24 h) was 0.442 µg equiv/g tissue, the “Tissue Concentration” value (Pituitary Gland, 1 h) was 1.689 µg equiv/g tissue and the “Tissue Concentration” value (Pituitary Gland, 8 h) was 0.468 µg equiv/g tissue. For the same compound, the “Tissue Concentration” value (Pituitary Gland, 24 h) was 0.128 µg equiv/g tissue, the “Tissue Concentration” value (Salivary Gland, 1 h) was 2.429 µg equiv/g tissue and the “Tissue Concentration” value (Salivary Gland, 8 h) was 0.428 µg equiv/g tissue. For the same compound, the “Tissue Concentration” value (Salivary Gland, 24 h) was 0.368 µg equiv/g tissue, the “Tissue Concentration” value (Skeletal Muscle, 1 h) was 1.123 µg equiv/g tissue and the “Tissue Concentration” value (Skeletal Muscle, 8 h) was 0.602 µg equiv/g tissue. The “Tissue Concentration” value (Skeletal Muscle, 24 h) was 0.627 µg equiv/g tissue, the “Tissue Concentration” value (Skin, 1 h) was 1.496 µg equiv/g tissue and the “Tissue Concentration” value (Skin, 8 h) was 0.479 µg equiv/g tissue. The “Tissue Concentration” value (Skin, 24 h) was 0.425 µg equiv/g tissue, the “Tissue Concentration” value (Spinal Cord, 1 h) was 0.480 µg equiv/g tissue and the “Tissue Concentration” value (Spinal Cord, 8 h) was 0.100 µg equiv/g tissue. The “Tissue Concentration” value (Spinal Cord, 24 h) was 0.120 µg equiv/g tissue, the “Tissue Concentration” value (Thyroid, 1 h) was 1.802 µg equiv/g tissue and the “Tissue Concentration” value (Thyroid, 8 h) was 0.374 µg equiv/g tissue. The “Tissue Concentration” value (Thyroid, 24 h) was 0.653 µg equiv/g tissue, the “Tissue Concentration” value (Tumor High, 1 h) was 2.836 µg equiv/g tissue and the “Tissue Concentration” value (Tumor High, 8 h) was 0.575 µg equiv/g tissue. For the same compound, the “Tissue Concentration” value (Tumor High, 24 h) was 0.479 µg equiv/g tissue, the “Tissue Concentration” value (Tumor Low, 1 h) was 1.245 µg equiv/g tissue and the “Tissue Concentration” value (Tumor Low, 8 h) was 0.162 µg equiv/g tissue. For the same compound, the “Tissue Concentration” value (Tumor Low, 24 h) was 0.240 µg equiv/g tissue, the “Tissue Concentration” value (Tumor, 1 h) was 1.961 µg equiv/g tissue and the “Tissue Concentration” value (Tumor, 8 h) was 0.427 µg equiv/g tissue. The “Tissue Concentration” value (Tumor, 24 h) was 0.275 µg equiv/g tissue, the “Tissue Concentration” value (Urinary Bladder (contents), 1 h) was 206.798 µg equiv/g tissue and the “Tissue Concentration” value (Urinary Bladder (contents), 8 h) was 1.716 µg equiv/g tissue. For the same compound, the “Tissue Concentration” value (Urinary Bladder (contents), 24 h) was 0.811 µg equiv/g tissue, the “Tissue Concentration” value (Urinary Bladder, 1 h) was 3.914 µg equiv/g tissue and the “Tissue Concentration” value (Urinary Bladder, 8 h) was 0.821 µg equiv/g tissue. The “Tissue Concentration” value (Urinary Bladder, 24 h) was 0.485 µg equiv/g tissue, the “Tissue Concentration” value (Uterus, 1 h) was 1.849 µg equiv/g tissue and the “Tissue Concentration” value (Uterus, 8 h) was 0.563 µg equiv/g tissue. The “Tissue Concentration” value (Uterus, 24 h) was 0.511 µg equiv/g tissue, the “Tissue Concentration” value (Vagina, 1 h) was 1.337 µg equiv/g tissue and the “Tissue Concentration” value (Vagina, 8 h) was 0.640 µg equiv/g tissue. For the same compound, the “Tissue Concentration” value (Vagina, 24 h) was 0.629 µg equiv/g tissue.
